Among the data in patent US9187486B2 (AMGEN INC., priority 2011, dated 2015) are IC50 values, retold here.

One assay concerns the target Pim-1 (Homo sapiens (Human), UniProt P11309). Kind of assay: Pim enzyme assay (HTRF, phosphorylation of biotinylated-BAD (S112) peptide), Pim-1. It is filed as biochemical. The method in brief:
(§1)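 Full-length human Pim-1 or Pim-2 with an N-terminal His6 tag, expressed in Sf9 or E. coli and purified as monomer. HTRF read-out: biotinylated BAD (S112) peptide phosphorylation detected with streptavidin-APC plus Eu-anti-phospho-BAD(S112) antibody, excitation 337 nm, emission 665 nm.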

For the next assay, the target named is Pim-2 (Homo sapiens (Human), UniProt Q9P1W9). Kind of assay: Pim enzyme assay (HTRF, phosphorylation of biotinylated-BAD (S112) peptide), Pim-2. It is filed as biochemical. Summed up: as §1
In assay [1] the test system is KMS-12-BM myeloma cell line. Description: Pim cell assay: phospho-BAD (S112) and total BAD in KMS-12-BM cells. It is filed as cell-based. As to conditions: 1 hour and 50 minutes incubation. Summed up: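 KMS-12-BM myeloma cells, after overnight culture, got a 10-point compound dose series (0.3% DMSO) for 1 h 50 min at 37 °C. Lysates measured for phospho-BAD (S112) and total BAD by MSD immunoassay; % phosphoprotein = 2×phospho/(phospho+total)×100.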

[2] abbreviates: full length recombinant Pim-1, biotinylated-BAD (S112) peptide, HTRF, read-out: Pim_1_IC50.
The mark [3] stands for this setting: full length recombinant Pim-2, biotinylated-BAD (S112) peptide, HTRF, read-out: Pim2_IC50.
Where [4] appears, read: Homo sapiens, KMS-12-BM, read-out: KMS12_Cell_IC50.
Where [5] appears, read: full length recombinant Pim-1, biotinylated-BAD (S112) peptide, HTRF, 96-well, read-out: Pim-1 IC50 IP.
Where [6] appears, read: full length recombinant Pim-2, biotinylated-BAD (S112) peptide, HTRF, 96-well, read-out: Pim-2 IC50 IP.
Setting [7] is: Homo sapiens, KMS-12-BM, read-out: KMS-12-BM IC50 IP.

Like-named read-outs stand apart in the source and are kept apart here.

Pim-1, sequence (P11309 whole entry): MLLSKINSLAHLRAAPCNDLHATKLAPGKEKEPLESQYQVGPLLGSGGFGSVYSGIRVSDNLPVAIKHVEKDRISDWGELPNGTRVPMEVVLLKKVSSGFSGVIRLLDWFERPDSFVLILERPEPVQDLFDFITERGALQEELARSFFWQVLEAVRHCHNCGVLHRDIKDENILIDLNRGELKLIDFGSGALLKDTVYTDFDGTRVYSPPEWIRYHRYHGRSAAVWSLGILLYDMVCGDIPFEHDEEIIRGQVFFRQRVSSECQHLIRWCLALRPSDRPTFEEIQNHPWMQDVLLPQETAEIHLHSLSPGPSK
Pim-2, sequence (Q9P1W9 whole entry): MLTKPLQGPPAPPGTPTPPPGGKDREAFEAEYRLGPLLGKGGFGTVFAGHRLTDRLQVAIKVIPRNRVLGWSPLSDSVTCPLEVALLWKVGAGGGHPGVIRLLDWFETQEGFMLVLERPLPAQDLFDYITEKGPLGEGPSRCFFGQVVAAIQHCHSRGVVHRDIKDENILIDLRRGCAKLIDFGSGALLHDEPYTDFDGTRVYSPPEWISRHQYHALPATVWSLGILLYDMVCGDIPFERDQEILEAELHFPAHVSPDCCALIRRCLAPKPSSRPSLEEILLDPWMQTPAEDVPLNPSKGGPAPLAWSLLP

Consider `Fc1cccc(F)c1-c1ccc2cnc(Nc3cnccc3N3CCNCC3)n2n1` [Example 2, 2-(2,6-difluorophenyl)-N-(4-(1-piperazinyl)-3-pyridinyl)imidazo[1,5-b]pyridazin-7-amine], for which the IC50 at Pim-1 (setting [2]) was 14 nM; on Pim-2 (setting [3]), 126 nM; in assay [1] (setting [4]) it was more than 31000 nM.
For `C[C@@H]1C[C@H](N)CN(c2ccncc2Nc2ncc3ccc(-c4ccccc4F)nn23)C1` (single isomer, unassigned) [Example 46, N-(4-((cis)-3-amino-5-methylpiperidin-1-yl)pyridin-3-yl)-2-(2-fluorophenyl)imidazo[1,5-b]pyridazin-7-amine tris(2,2,2-trifluoroacetate)], the IC50 was less than 0.1 nM on Pim-1 (setting [5]); 0.1 nM on Pim-2 (setting [6]); 52.1 nM in assay [1] (tris(2,2,2-trifluoroacetate), read-out: KMS-12-BM IC50 IP).
In the case of `N[C@H]1C[C@@H](C(F)(F)F)CN(c2ccncc2Nc2ncc3ccc(-c4c(F)cccc4F)nn23)C1` (racemic) [Example 60, rac-N-(4-((cis)-3-amino-5-(trifluoromethyl)piperidin-1-yl)pyridin-3-yl)-2-(2,6-difluorophenyl)imidazo[1,5-b]pyridazin-7-amine bis(2,2,2-trifluoroacetate)], the values for the IC50 (at Pim-1 (setting [5]); on Pim-2 (setting [6]); in assay [1] (setting [7])) were 0.1 nM, 0.3 nM and 116 nM, respectively.
For the molecule `N[C@H]1CCCN(c2ccncc2Nc2ncc3ccc(-c4ccccn4)nn23)C1` [Example 64, (S)-N-(4-(3-aminopiperidin-1-yl)pyridin-3-yl)-2-(pyridin-2-yl)imidazo[1,5-b]pyridazin-7-amine], the IC50 on Pim-1 (setting [5]) came to 1.5 nM; at Pim-2 (setting [6]) it was 6.4 nM; in assay [1] (setting [7]), 1760 nM.
Regarding `N[C@H]1CCCN(c2ccncc2Nc2ncc3ccc(-c4ccc(Cl)cc4Cl)nn23)C1` [Example 11, N-(4-((3S)-3-amino-1-piperidinyl)-3-pyridinyl)-2-(2,4-dichlorophenyl)imidazo[1,5-b]pyridazin-7-amine], the IC50 at Pim-1 (setting [2]) was found to be 2 nM; at Pim-2 (setting [3]) it was 11 nM; in assay [1] (setting [4]), 5010 nM.
Consider `N[C@H]1C[C@@H](F)CN(c2ccncc2Nc2ncc3ccc(-c4ncccc4F)nn23)C1` [Example 53, N-(4-((3S,5R)-3-amino-5-fluoro-1-piperidinyl)-3-pyridinyl)-2-(3-fluoro-2-pyridinyl)imidazo[1,5-b]pyridazin-7-amine], for which the IC50 was found to be 3.4 nM on Pim-1 (setting [5]), 10.9 nM on Pim-2 (setting [6]) and 1200 nM in assay [1] (setting [7]).
Turning to `C[C@H]1CCN(c2ccncc2Nc2ncc3ccc(-c4c(F)cccc4F)nn23)C[C@H]1N` (single isomer, unassigned) [Example 98, N-(4-((cis)-3-amino-4-methylpiperidin-1-yl)pyridin-3-yl)-2-(2,6-difluorophenyl)imidazo[1,5-b]pyridazin-7-amine bis(2,2,2-trifluoroacetate)], the IC50 came to 2.8 nM at Pim-1 (read-out: Pim-1 IC50 IP); 15.7 nM at Pim-2 (read-out: Pim-2 IC50 IP); 12100 nM in assay [1] (bis(2,2,2-trifluoroacetate), read-out: KMS-12-BM IC50 IP).
For the molecule `N[C@H]1CCCN(c2ccncc2Nc2ncc3ccc(-c4ccc(F)cc4F)nn23)C1` [Example 12, N-(4-((3S)-3-amino-1-piperidinyl)-3-pyridinyl)-2-(2,4-difluorophenyl)imidazo[1,5-b]pyridazin-7-amine], the figures for the IC50 (on Pim-1 (setting [2]); on Pim-2 (setting [3]); in assay [1] (setting [4])) were 0.4 nM, 3 nM and 1760 nM, respectively.
Consider `C[C@@H]1C[C@H](N)CN(c2ccncc2Nc2ncc3ccc(-c4ncccc4Cl)nn23)C1` [Example 79], for which the IC50 was 0.2 nM at Pim-1 (setting [5]), 0.5 nM at Pim-2 (setting [6]) and 132 nM in assay [1] (setting [7]).
`N[C@H]1CCCN(c2ccncc2Nc2ncc3ccc(-c4ncccc4Cl)nn23)C1` [Example 78, (S)-N-(4-(3-aminopiperidin-1-yl)pyridin-3-yl)-2-(3-chloropyridin-2-yl)imidazo[1,5-b]pyridazin-7-amine]: the IC50 at Pim-1 (setting [5]) was 0.9 nM; on Pim-2 (setting [6]), 2.6 nM; in assay [1] (setting [7]) it was 620 nM.
Regarding `O[C@H]1CCN(c2ccncc2Nc2ncc3ccc(-c4c(F)cccc4F)nn23)C[C@@H]1O` (mixture of isomers) [Example 25, (3S,4S)-1-(3-((2-(2,6-difluorophenyl)imidazo[1,5-b]pyridazin-7-yl)amino)-4-pyridinyl)-3,4-piperidinediol and (3R,4R)-1-(3-((2-(2,6-difluorophenyl)imidazo[1,5-b]pyridazin-7-yl)amino)-4-pyridinyl)-3,4-piperidinediol (1/1)], the results for the IC50 (on Pim-1 (read-out: Pim_1_IC50); on Pim-2 (read-out: Pim2_IC50); in assay [1] (read-out: KMS12_Cell_IC50)) were 2 nM, 8 nM and 777 nM, respectively.
`C[C@@H]1C[C@H](N)CN(c2ccncc2Nc2ncc3ccc(-c4nccs4)nn23)C1` [Example 62, N-(4-((3S,5R)-3-amino-5-methylpiperidin-1-yl)pyridin-3-yl)-2-(thiazol-2-yl)imidazo[1,5-b]pyridazin-7-amine bis(2,2,2-trifluoroacetate)]: the figures for the IC50 (on Pim-1 (setting [5]); on Pim-2 (read-out: Pim-2 IC50 IP); in assay [1] (setting [7])) were 0.3 nM, 0.4 nM and 183 nM, respectively.
For `Nc1cccc(-c2ccncc2Nc2ncc3ccc(-c4c(F)cccc4F)nn23)c1` [Example 27, N-(4-(3-aminophenyl)-3-pyridinyl)-2-(2,6-difluorophenyl)imidazo[1,5-b]pyridazin-7-amine], the results for the IC50 (at Pim-1 (setting [2]); on Pim-2 (setting [3]); in assay [1] (setting [4])) were 9 nM, 121 nM and more than 1000 nM, respectively.
Turning to `CS(=O)(=O)c1ccc(-c2ccc3cnc(Nc4cnccc4N4CCC[C@H](N)C4)n3n2)c(F)c1` [Example 22, N-(4-((3S)-3-amino-1-piperidinyl)-3-pyridinyl)-2-(2-fluoro-4-(methylsulfonyl)phenyl)imidazo[1,5-b]pyridazin-7-amine], the IC50 on Pim-1 (setting [2]) came to 1.2 nM; on Pim-2 (setting [3]), 9.1 nM; in assay [1] (setting [4]), 2390 nM.
